We go through eight compounds from PubChem BioAssay (NCI).

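These data come from cells grown in 96-well plates and exposed to compound for 48 hours at five concentrations. GI50 marks 50% less growth. TGI is the concentration that stops growth completely.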

Among the test systems are TK-10 renal; HCT-15 colon; NCI-H23 lung; UO-31 renal; SF-268 CNS; NCI-H226 lung; NCI/ADR-RES ovarian; NCI-H460 lung; OVCAR-4 ovarian; OVCAR-5 ovarian.
Common to all, as to experiment: DTP human tumour cell line panel, 48 h

Consider `CC1(C)CC(=O)C2=C(C1)NC(SSC1=C(C#N)C(c3ccccc3)C3=C(CC(C)(C)CC3=O)N1)=C(C#N)C2c1ccccc1` (configuration not stated), for which the GI50 in the assay with TK-10 renal is 26.9 µg/mL; in the assay with HCT-15 colon, 26.8 µg/mL; in the assay on NCI-H23 lung it was 27.7 µg/mL; with UO-31 renal it was 21 µg/mL; in the assay with SF-268 CNS, 28 µg/mL; with NCI-H226 lung, 32 µg/mL. Besides, the GI50 in the assay on NCI/ADR-RES ovarian was 32.9 µg/mL; with NCI-H460 lung, 27.7 µg/mL; with OVCAR-4 ovarian, 23.6 µg/mL; in the assay with OVCAR-5 ovarian, 27.8 µg/mL. Besides, the TGI with TK-10 renal stood at 48.1 µg/mL; in the assay on HCT-15 colon, 48.8 µg/mL; in the assay on NCI-H23 lung, 50.9 µg/mL; in the assay on UO-31 renal it was 40.5 µg/mL; with SF-268 CNS, 53.7 µg/mL; with NCI-H226 lung it was 70.8 µg/mL. Further, the TGI in the assay with NCI/ADR-RES ovarian amounted to 65.9 µg/mL; with NCI-H460 lung it was 50.7 µg/mL; with OVCAR-4 ovarian, 44.8 µg/mL; with OVCAR-5 ovarian, 50.9 µg/mL.

Take `O=C1C=C[C@]2(C[C@@H](c3cccc(C(F)(F)F)c3)O[C@@H](c3cccc(C(F)(F)F)c3)O2)O1`: the GI50 with TK-10 renal was 1.66 µM; with HCT-15 colon, 1.66 µM; in the assay on NCI-H23 lung, 4.03 µM; in the assay with UO-31 renal it was 1.84 µM; in the assay on SF-268 CNS, 1.5 µM; with NCI-H226 lung, 2.18 µM. For the same compound, the GI50 with NCI/ADR-RES ovarian is 1.9 µM; in the assay with NCI-H460 lung, 0.6 µM; in the assay on OVCAR-4 ovarian, 5.24 µM; in the assay on OVCAR-5 ovarian, 7.76 µM. Besides, the TGI with TK-10 renal is 3.22 µM; in the assay with HCT-15 colon it was 4.13 µM; in the assay on NCI-H23 lung it was 18.7 µM; in the assay with UO-31 renal, 5.08 µM; in the assay on SF-268 CNS, 4.14 µM; with NCI-H226 lung, 10.5 µM. Further, the TGI amounted to 6.62 µM in the assay on NCI/ADR-RES ovarian, 2.58 µM in the assay on NCI-H460 lung, 19.3 µM in the assay with OVCAR-4 ovarian and 26.1 µM in the assay on OVCAR-5 ovarian.

`C[C@@H](c1ccc2nccn2c1)n1nnc2ncc(-c3cnn(C)c3)nc21`: the GI50 in the assay on TK-10 renal, in the assay with HCT-15 colon, in the assay on NCI-H23 lung, with UO-31 renal, in the assay with SF-268 CNS and in the assay on NCI-H226 lung was > 100 µM each time. For the same compound, the GI50 is > 100 µM in the assay with NCI/ADR-RES ovarian, > 100 µM in the assay on NCI-H460 lung, 65.1 µM in the assay with OVCAR-4 ovarian and > 100 µM with OVCAR-5 ovarian. Besides, the TGI in the assay with TK-10 renal, in the assay on HCT-15 colon, in the assay on NCI-H23 lung, in the assay with UO-31 renal, in the assay on SF-268 CNS and with NCI-H226 lung was > 100 µM throughout. For the same compound, the concentration for total growth inhibition (TGI) in the assay with NCI/ADR-RES ovarian, in the assay on NCI-H460 lung, with OVCAR-4 ovarian and with OVCAR-5 ovarian was > 100 µM each time.

As for `CCOC(=O)c1cnc(SCc2ccc(Cl)c(Cl)c2)nc1N1CC1`, the GI50 is 3.87 µM in the assay with TK-10 renal; 1.31 µM in the assay with HCT-15 colon; 3.62 µM in the assay on NCI-H23 lung; 1.87 µM in the assay on UO-31 renal; 3.05 µM with SF-268 CNS; 5.01 µM with NCI-H226 lung. In addition, the GI50 in the assay on NCI/ADR-RES ovarian was 2.91 µM; in the assay on NCI-H460 lung, 2.88 µM; with OVCAR-4 ovarian, 3.17 µM; in the assay with OVCAR-5 ovarian it was 4.67 µM. For the same compound, the TGI with TK-10 renal amounted to 15.2 µM; in the assay with HCT-15 colon, 14.4 µM; in the assay with NCI-H23 lung, 14.5 µM; with UO-31 renal, 7.63 µM; with SF-268 CNS, 12.2 µM; in the assay on NCI-H226 lung it was 18.9 µM. The TGI in the assay on NCI/ADR-RES ovarian came to 8.72 µM; in the assay on NCI-H460 lung, 7.66 µM; in the assay on OVCAR-4 ovarian, 14 µM; with OVCAR-5 ovarian, 19.4 µM.

As to `COc1ccc(N(C)c2nc(C)nc3ccccc23)cc1`, the TGI with TK-10 renal was > 47.5 µM; with HCT-15 colon, > 100 µM; in the assay on NCI-H23 lung, 20.8 µM; in the assay with UO-31 renal it was 60.4 µM; in the assay on SF-268 CNS, > 34 µM; in the assay on NCI-H226 lung, 0.534 µM. Moreover, the TGI with OVCAR-4 ovarian and in the assay on OVCAR-5 ovarian was > 100 µM each time. Besides, the GI50 in the assay with HCT-15 colon is < 0.01 µM; with NCI-H23 lung it was < 0.01 µM; in the assay with UO-31 renal, 0.0103 µM; in the assay on SF-268 CNS, < 0.01 µM; with NCI-H226 lung it was < 0.01 µM; with NCI/ADR-RES ovarian, < 0.01 µM. The 50% growth inhibitory concentration (GI50) in the assay with NCI-H460 lung, with OVCAR-4 ovarian and in the assay with OVCAR-5 ovarian was < 0.01 µM in each case.

Regarding `C1=CN2C[n+]3cccc(OCc4ccccc4)c3N=C2C(OCc2ccccc2)=C1`, the TGI in the assay on TK-10 renal is > 100 µM; in the assay on HCT-15 colon, > 100 µM; with NCI-H23 lung it was 39.9 µM; in the assay with UO-31 renal it was > 100 µM; with SF-268 CNS, > 100 µM; in the assay with NCI-H226 lung, > 100 µM. The TGI with NCI/ADR-RES ovarian is > 100 µM; in the assay on NCI-H460 lung, > 100 µM; in the assay on OVCAR-4 ovarian, 82.9 µM; in the assay on OVCAR-5 ovarian, > 100 µM.

On to `COc1ccc(/C(=C/c2cc(OC)c(OC)c(OC)c2)[N+](=O)[O-])cc1`, for which the GI50 in the assay on TK-10 renal was 1.88 µM; in the assay with HCT-15 colon, 1.63 µM; with NCI-H23 lung, 2.02 µM; in the assay on UO-31 renal it was 1.3 µM; with SF-268 CNS it was 1.79 µM; in the assay with NCI-H226 lung, 2.29 µM. In addition, the GI50 with NCI/ADR-RES ovarian is 2.47 µM; with NCI-H460 lung, 2.24 µM; in the assay on OVCAR-4 ovarian, 1.63 µM; with OVCAR-5 ovarian, 2.01 µM. The total growth inhibition concentration (TGI) in the assay with TK-10 renal stood at 3.59 µM; in the assay on HCT-15 colon, 3.54 µM; in the assay with NCI-H23 lung, 4.64 µM; in the assay with UO-31 renal it was 2.62 µM; in the assay on SF-268 CNS, 3.64 µM; with NCI-H226 lung it was 5.78 µM. In addition, the TGI came to 7.55 µM in the assay with NCI/ADR-RES ovarian, 5.23 µM with NCI-H460 lung, 3.29 µM in the assay on OVCAR-4 ovarian and 4.09 µM with OVCAR-5 ovarian.

Take `O=C(Nc1ccncc1)C(=O)c1cn(S(=O)(=O)c2ccc(Br)cc2)c2ccccc12`: the GI50 in the assay on TK-10 renal is 15.1 µM; in the assay with HCT-15 colon, 3.81 µM; with NCI-H23 lung it was 4.74 µM; in the assay on UO-31 renal, > 100 µM; in the assay with SF-268 CNS, 8.47 µM; in the assay with NCI-H226 lung, 20.9 µM. Moreover, the GI50 was 2.65 µM in the assay on NCI/ADR-RES ovarian, 11.3 µM in the assay with NCI-H460 lung, 15.1 µM in the assay on OVCAR-4 ovarian and > 100 µM with OVCAR-5 ovarian. The TGI in the assay with TK-10 renal, in the assay with HCT-15 colon, in the assay on NCI-H23 lung, in the assay on UO-31 renal, in the assay with SF-268 CNS and in the assay on NCI-H226 lung was > 100 µM in each case. For the same compound, the TGI in the assay on NCI/ADR-RES ovarian, in the assay with NCI-H460 lung, with OVCAR-4 ovarian and with OVCAR-5 ovarian was > 100 µM in each case.

By GI50 is commonly meant the concentration giving 50% growth inhibition. The term TGI denotes the concentration giving total growth inhibition. Read a high TGI as lower sensitivity of the cells.
